Test results from patent US8765721B2, “Composition comprising phosphatidyl serine and an antigen or allergen and the use thereof” (Vaccine Technology Limited, priority 2004, dated 2014).

What was measured:
Assay type in all cases: in vivo, rat
IgG2a = experiment: Ovalbumin-specific IgG2a ELISA of serum of immunised rats; settings: pooled group serum
Protocol: (§1) Rats were injected with vaccine compositions comprising the ovalbumin antigen with and without di-oleoyl phosphatidyl serine, lyso-oleoyl phosphatidyl serine or stearoyl(X1)-arachidonoyl(X2) phosphatidyl serine and the concentrations of IgE, IgA and IgG are compared.
(§2) The animals were acclimatised for a period of 5 days prior to dosing. During the acclimatisation period animals were observed twice daily during the working week and once on each day during the weekend to evaluate the health status of the animals. Rats were then allocated to the following dose groups using computer-generated random order numbers.
(§3) On day 0, 20 μg of ovalbumin (OA) in phosphate buffered saline (PBS) with alhydrogel (AHG) adjuvant in a final volume of 0.5 mL was administered.
(§4) On days 21 and 42, 20 μg of ovalbumin (OA) in phosphate buffered saline (PBS) with the relevant test compound in a final volume of 0.5 ml was administered.
(§5) In each case, 0.5 mL of inoculum was injected subcutaneously into the scruff of the neck. […]
(§6) Serum was prepared by centrifugation of the blood sample at 2,500 rpm for 10 minutes and frozen at −20° C. The samples were then analysed by ELISA to establish the concentration of IgE, IgA and IgG1, IgG2a and IgG2b.
(§7) The purpose of an ELISA is to determine whether a particular protein is present in a sample and then enables quantification of how much is present. By coating the bottom of wells with ovalbumin (OVA) it is possible to bind anti-OVA specific antibodies. To detect only anti-OVA IgA antibodies anti-rat IgA conjugated to HRP was used as a secondary antibody. Quantification of specific antibodies in the rat sera samples was performed using antibody titrations. The data was reported as endpoint titers. Endpoint titers are defined as the last serum dilution giving an optical density value equal to twice the background optical density for the ELISA plate (buffer).

IgG1 = experiment: Ovalbumin-specific IgG1 ELISA of serum of immunised rats; settings: pooled group serum
Protocol: as §1, §2, §3, §4, §5, §6
as §7, with “To detect only anti-OVA IgA antibodies anti-rat IgA conjugated to HRP was used as a secondary antibody.” left out

IgE [1] = experiment: Ovalbumin-specific IgE ELISA of serum of immunised rats; settings: Day 1; 250 ug with 20 μg Ova s.c. on days 21 and 42; pooled group serum
IgA [2] = experiment: Ovalbumin-specific IgA ELISA of serum of immunised rats; settings: Day 1; 50 ug with 20 μg Ova s.c. on days 21 and 42; pooled group serum
IgE [3] = experiment: Ovalbumin-specific IgE ELISA of serum of immunised rats; settings: pooled group serum
Protocol: as §1, §2, §3, §4
(§8) In each case, 0.5 mL of inoculum was injected subcutaneously into the scruff of the neck.
(§9) […] A blood sample was also taken from each animal on Days 15, 22, 29, 36, 43, 50, 57 and 64.
as §6, §7

IgA [4] = experiment: Ovalbumin-specific IgA ELISA of serum of immunised rats; settings: pooled group serum
Protocol: as §1, §2, §3, §4, §8
On Day 0 a pre-inoculation blood sample was taken. A blood sample was also taken from each animal on Days 15, 22, 29, 36, 43, 50, 57 and 64.
as §6, §7

IgG2b = experiment: Ovalbumin-specific IgG2b ELISA of serum of immunised rats; settings: pooled group serum
Protocol: as §1, §2, §3, §4, §8, §9, §6, §7

[5] = Day 1, 50 ug with 20 μg Ova s.c. on days 21 and 42
[6] = Day 1, 250 ug with 20 μg Ova s.c. on days 21 and 42
[7] = Day 15, 50 ug with 20 μg Ova s.c. on days 21 and 42
[8] = Day 15, 250 ug with 20 μg Ova s.c. on days 21 and 42
[9] = Day 22, 50 ug with 20 μg Ova s.c. on days 21 and 42
[10] = Day 22, 250 ug with 20 μg Ova s.c. on days 21 and 42
[11] = Day 29, 50 ug with 20 μg Ova s.c. on days 21 and 42
[12] = Day 29, 250 ug with 20 μg Ova s.c. on days 21 and 42
[13] = Day 36, 50 ug with 20 μg Ova s.c. on days 21 and 42
[14] = Day 36, 250 ug with 20 μg Ova s.c. on days 21 and 42
[15] = Day 43, 50 ug with 20 μg Ova s.c. on days 21 and 42
[16] = Day 43, 250 ug with 20 μg Ova s.c. on days 21 and 42
[17] = Day 50, 50 ug with 20 μg Ova s.c. on days 21 and 42
[18] = Day 50, 250 ug with 20 μg Ova s.c. on days 21 and 42
[19] = Day 57, 50 ug with 20 μg Ova s.c. on days 21 and 42
[20] = Day 57, 250 ug with 20 μg Ova s.c. on days 21 and 42
[21] = Day 64, 50 ug with 20 μg Ova s.c. on days 21 and 42
[22] = Day 64, 250 ug with 20 μg Ova s.c. on days 21 and 42

CCCCCCCC/C=C\CCCCCCCC(=O)OC[C@H](COP(=O)(O)OC[C@H](N)C(=O)O)OC(=O)CCCCCCC/C=C\CCCCCCCC [VT001, Dioleoyl phosphatidyl serine]
20480: IgG2a endpoint titer (IgG2a; [21]) | IgG2a endpoint titer (IgG2a; [22]) | IgG1 endpoint titer (IgG1; [12]) | IgG1 endpoint titer (IgG1; [13]) | IgG1 endpoint titer (IgG1; [17]) | IgG1 endpoint titer (IgG1; [21]) | IgG1 endpoint titer (IgG1; [22])
5120: IgG2a endpoint titer (IgG2a; [11]) | IgG2a endpoint titer (IgG2a; [14]) | IgG2b endpoint titer (IgG2b; [19]) | IgG2b endpoint titer (IgG2b; [20]) | IgG2b endpoint titer (IgG2b; [21]) | IgG2b endpoint titer (IgG2b; [22])
1280: IgG2a endpoint titer (IgG2a; [10]) | IgE endpoint titer (IgE [3]; [17]) | IgE endpoint titer (IgE [3]; [18]) | IgA endpoint titer (IgA [4]; [17]) | IgA endpoint titer (IgA [4]; [18]) | IgA endpoint titer (IgA [4]; [19]) | IgA endpoint titer (IgA [4]; [20]) | IgG2b endpoint titer (IgG2b; [16]) | IgG2b endpoint titer (IgG2b; [18])
40960: IgG2a endpoint titer (IgG2a; [17]) | IgG2a endpoint titer (IgG2a; [18]) | IgG2a endpoint titer (IgG2a; [19]) | IgG2a endpoint titer (IgG2a; [20]) | IgG1 endpoint titer (IgG1; [11]) | IgG1 endpoint titer (IgG1; [14]) | IgG1 endpoint titer (IgG1; [19]) | IgG1 endpoint titer (IgG1; [20])
0: IgG2a endpoint titer (IgG2a; [5]) | IgG2a endpoint titer (IgG2a; [6]) | IgG1 endpoint titer (IgG1; [5]) | IgG1 endpoint titer (IgG1; [6]) | IgE endpoint titer (IgE [1]) | IgA endpoint titer (IgA [2]) | IgE endpoint titer (IgE [3]; [5]) | IgE endpoint titer (IgE [3]; [7]) | IgE endpoint titer (IgE [3]; [8]) | IgE endpoint titer (IgE [3]; [9]) | IgE endpoint titer (IgE [3]; [10]) | IgE endpoint titer (IgE [3]; [11]) | IgE endpoint titer (IgE [3]; [15]) | IgE endpoint titer (IgE [3]; [21]) | IgA endpoint titer (IgA [4]; [6]) | IgA endpoint titer (IgA [4]; [7]) | IgA endpoint titer (IgA [4]; [8]) | IgA endpoint titer (IgA [4]; [9]) | IgA endpoint titer (IgA [4]; [10]) | IgG2b endpoint titer (IgG2b; [5]) | IgG2b endpoint titer (IgG2b; [6])
640: IgG2a endpoint titer (IgG2a; [8]) | IgA endpoint titer (IgA [4]; [13]) | IgA endpoint titer (IgA [4]; [14]) | IgA endpoint titer (IgA [4]; [16]) | IgA endpoint titer (IgA [4]; [21]) | IgA endpoint titer (IgA [4]; [22]) | IgG2b endpoint titer (IgG2b; [10]) | IgG2b endpoint titer (IgG2b; [12])
2560: IgG2a endpoint titer (IgG2a; [9]) | IgG2a endpoint titer (IgG2a; [12]) | IgG1 endpoint titer (IgG1; [9]) | IgG1 endpoint titer (IgG1; [10]) | IgG2b endpoint titer (IgG2b; [14]) | IgG2b endpoint titer (IgG2b; [17])
320: IgA endpoint titer (IgA [4]; [11]) | IgA endpoint titer (IgA [4]; [12]) | IgA endpoint titer (IgA [4]; [15]) | IgG2b endpoint titer (IgG2b; [8]) | IgG2b endpoint titer (IgG2b; [9])
160: IgG1 endpoint titer (IgG1; [7]) | IgG1 endpoint titer (IgG1; [8]) | IgE endpoint titer (IgE [3]; [19]) | IgE endpoint titer (IgE [3]; [20]) | IgG2b endpoint titer (IgG2b; [7]) | IgG2b endpoint titer (IgG2b; [11]) | IgG2b endpoint titer (IgG2b; [13]) | IgG2b endpoint titer (IgG2b; [15])
40: IgG2a endpoint titer (IgG2a; [7]) | IgE endpoint titer (IgE [3]; [12]) | IgE endpoint titer (IgE [3]; [13]) | IgE endpoint titer (IgE [3]; [14]) | IgE endpoint titer (IgE [3]; [22])
10240: IgG2a endpoint titer (IgG2a; [13]) | IgG2a endpoint titer (IgG2a; [15]) | IgG2a endpoint titer (IgG2a; [16]) | IgG1 endpoint titer (IgG1; [15]) | IgG1 endpoint titer (IgG1; [16]) | IgG1 endpoint titer (IgG1; [18])
80: IgE endpoint titer (IgE [3]; [16])
